Publication PMC12756182, “Co-option of an ancestral peptidase controls developmental patterning in multicellular cyanobacteria” (iScience, 2025)

Experiments:
HetR [1] = biological target: T1, HetR (Nostoc sp., UniProt P27709); settings: cited from earlier work
T1 construct: made in house
T1 sequence (P27709 1-299): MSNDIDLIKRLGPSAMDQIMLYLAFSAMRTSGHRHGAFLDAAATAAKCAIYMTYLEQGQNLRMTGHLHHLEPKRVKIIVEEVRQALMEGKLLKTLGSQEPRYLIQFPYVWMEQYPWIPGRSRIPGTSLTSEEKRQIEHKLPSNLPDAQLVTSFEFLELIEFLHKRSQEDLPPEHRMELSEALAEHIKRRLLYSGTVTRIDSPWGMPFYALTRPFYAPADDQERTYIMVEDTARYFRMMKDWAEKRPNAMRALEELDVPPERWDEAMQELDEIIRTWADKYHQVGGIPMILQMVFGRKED
Source text: Heterocyst differentiation involves four stages—induction, pattern formation, commitment, and morphogenesis—regulated by signaling cascades involving the master transcriptional regulator HetR.[10] Nitrogen starvation triggers 2-oxoglutarate (2-OG) accumulation, activating NtcA to upregulate hetR.[11]^,[12] Deletion of hetR prevents differentiation, while its overexpression induces contiguous heterocysts formation even under non-permissive conditions.[10] HetR initiates a negative feedback loop by activating patS expression.[13] The resulting 17-amino-acid product is processed into the signalin ...

[2] = test system: Nostoc heterocyst differentiation; settings: cited from earlier work
Alr1666 (PatP) = test: LC-MS/MS identification of Alr1666-generated non-tryptic PatX peptides; assay type: biochemical, Nostoc PCC 7120; settings: LC-MS/MS of excised 18–25 kDa gel region; three experimental replicates; with vs without Alr1666-V5
Source text: Figure 5 Ex vivo cleavage assay of TrxA-PatXΔSS-MBP by the putative peptidase Alr1666 (A) Schematic of the TrxA-PatXΔSS-MBP fusion protein construct, shown before and after potential cleavage by Alr1666. (B) Immunoblot analysis of cleavage assays. Expression of trxA-patXΔSS-malE was induced with IPTG; expression of alr1666-V5 was induced with arabinose. The blot was probed with anti-TrxA antibodies (top panel) to detect the full-length TrxA-PatXΔSS-MBP fusion and any TrxA-PatX cleavage product, and with anti-V5 antibodies (bottom panel) to confirm Alr1666-V5 production. Lanes: 1, no inducer (negative control); 2, IPTG for 3 h; 3, IPTG for 1 h; 4, co-induction with IPTG and arabinose for 3 h; 5, sequential induction (IPTG for 1 h, then arabinose for 3 h). (C) Liquid chromatography-tandem mass spectrometry analysis of peptides from excised gel bands (see Figure S6A). […] Trx-PatXΔSS-MBP + Alr1666-V5: Experimental assay with Alr1666-V5. ∗0 values: No non-tryptic peptides were detected in control samples. […]
The 18–25 kDa region was excised to identify PatX-cleavage peptides by mass spectrometry (Figure S6A). Because higher molecular-weight bands smear downward during SDS-PAGE, the excised slice also contains proteins from those upper regions, and they will be detected as well. […] They were uniquely detected in Alr1666-expressing samples ([…]). […]

HetR (Nostoc PCC 7120) = biological target: T2, HetR (Nostoc PCC 7120) (UniProt P27709); test: EMSA; settings: EMSA: 10 mM Tris pH 8, 150 mM KCl, 500 nM EDTA, 0.1% Triton X-100, 12.5% glycerol, 1 mM DTT, 1 ug DiDC competitor (so in the source), 50 nM DNA, 4 C, 30 min in the …
T2 sequence: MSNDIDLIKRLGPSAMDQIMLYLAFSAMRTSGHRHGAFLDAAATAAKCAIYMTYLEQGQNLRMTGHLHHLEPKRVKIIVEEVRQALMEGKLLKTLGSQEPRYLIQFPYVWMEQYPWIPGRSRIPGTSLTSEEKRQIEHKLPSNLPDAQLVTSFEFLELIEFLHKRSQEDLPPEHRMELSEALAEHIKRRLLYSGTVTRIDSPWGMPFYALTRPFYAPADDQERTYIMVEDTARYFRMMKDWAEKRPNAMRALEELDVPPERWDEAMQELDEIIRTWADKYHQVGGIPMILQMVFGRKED

HetR / hetP promoter = test: EMSA of HetR with the hetP promoter; assay type: biochemical, Nostoc PCC 7120; settings: HetR 1 μM, hetP promoter 50 nM (6-FAM), peptide 1 μM, pH 8, 4°C, 30 minutes, one representative result
Protocol: Heterocysts are indicated by white arrows. Time denotes hours post combined nitrogen starvation. Scale bars, 30 μm. […] Sector 1: wild-type. Sector 2: malE mutant. […] Red color indicates MBP periplasmic export.
The hetP gene promoter (alr2818) was amplified by PCR using PhetP fw and PhetP rv primers, with the forward primer labeled at the 5′ end with 6-FAM. Purified HetR protein (as previously described),[3] was incubated with the hetP promoter (50 nM) in a buffer containing 10 mM Tris (pH 8), 150 mM KCl, 500 nM EDTA, 0.1% Triton X-100, 12.5% glycerol, 1 mM DTT, and 1 μg DiDC competitor at 4°C in the dark for 30 minutes. Electrophoresis was conducted at 250 V for 60 minutes, and DNA was visualized using the Typhoon FLA 9500.

[3] = test system: Nostoc PCC 7120 heterocyst differentiation; settings: cited from earlier work
Source text: While hetR is conserved across heterocyst-forming cyanobacteria, patS and hetN are not,[23] implying the existence of additional inhibitory factors. Recently, PatX, containing the HRGTGR hexapeptide, was identified as coextensive with HetR in filamentous cyanobacteria.[23]

HetR [4] = biological target: T3, HetR (Nostoc PCC 7120, UniProt P27709 1-299); test: ITC; PatX6 (200 μM, syringe) titrated into HetR (22 μM, cell), 25°C, PBS pH 7.4, one-site binding model, MicroCal PEAQ-ITC; settings: both partners purified
T3 construct: HetR, master transcriptional regulator of heterocyst differentiation, Nostoc/Anabaena PCC 7120; purified protein used in ITC and EMSA; also called master transcriptional regulator HetR; source: purified (as previously described)
T3 sequence (looked up): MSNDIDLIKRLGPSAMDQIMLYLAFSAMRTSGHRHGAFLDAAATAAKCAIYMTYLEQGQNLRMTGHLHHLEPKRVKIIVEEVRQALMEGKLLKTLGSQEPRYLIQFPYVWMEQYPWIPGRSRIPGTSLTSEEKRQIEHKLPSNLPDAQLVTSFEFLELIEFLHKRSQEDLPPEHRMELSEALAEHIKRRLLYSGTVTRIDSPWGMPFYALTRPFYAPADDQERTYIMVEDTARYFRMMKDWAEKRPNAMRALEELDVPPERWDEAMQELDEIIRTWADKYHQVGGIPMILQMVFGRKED

## RGSGR [PatS5, signaling peptide PatS5 (RGSGR)]
HetR [1]
  binding to HetR and effect on its DNA-binding function: binds to HetR to inhibit its DNA-binding function
[2]
  effect of exogenous peptide on differentiation: suppress differentiation

## AFSPSNSQNMISLK [non-tryptic PatX cleavage peptide flanking HRGTGR, detected by mass spectrometry]
Alr1666 (PatP)
  detection of non-tryptic cleavage peptide: exclusively present in peptidase-producing strains

## TGAGTTATACGCTATATCAATGGGGATTTTGAGCATTTTCTACTAGGTAATGAGGGGTTAGACCCCTCGCCTACTGTGCATTTGAGACTTTAAACCTACTAAGAGAATTTACCACTAAAT (double strand) [hetP promoter PCR fragment]
HetR (Nostoc PCC 7120)
  binding: binds

## ERGSGR [PatS6, signaling peptide PatS6 (ERGSGR), positive control in EMSA]
HetR / hetP promoter
  effect on HetR-hetP promoter interaction: abolished this interaction
HetR [1]
  binding to HetR and effect on its DNA-binding function: binds to HetR to inhibit its DNA-binding function
[2]
  effect of exogenous peptide on differentiation: suppress differentiation

## GPDIIFWAHDR [non-tryptic PatX cleavage peptide flanking HRGTGR, detected by mass spectrometry]
Alr1666 (PatP)
  detection of non-tryptic cleavage peptide: exclusively present in peptidase-producing strains

## PatS: 17-amino-acid product of patS, processed into PatS5 or PatS6 (MKAIMLVNFCDERGSGR; UniProt O52748 1-17, looked up)
[3]
  effect of overexpression on heterocyst differentiation: inhibits heterocyst differentiation

B1: HetN: another inhibitor that maintains heterocyst patterning, containing the RGSGR pentapeptide (protein, UniProt P37694 1-287, looked up)
Ketoacyl reductase HetN: MTTLTGKTVLLTGASRGLGVYIARALAKEQATVVCVSRSQSGLAQTCNAVKAAGGKAIAIPFDVRNTSQLSALVQQAQDIVGPIDVLINNAGIEINGTFANYSLAEIQSIFNTNLLAAMELTRLLLPSMMERGSGRIVNIASLAGKKGVAFNSVYSASKAGLIMWTDAMRQELVGTGVNISVVCPGYVSQTGMTVDTRVSAPKLAGISTPKSVANAVVKAIKNKTTEVIVNQNPITESLTKLMLAVGQISPTSVDRIYRWFGVVDFNQKRAENRVKDGYVAVESHRS
[3]
  effect of overexpression on heterocyst differentiation: inhibits heterocyst differentiation

B2: PatX-6 peptide (HRGTGR) (peptide)
peptide: HRGTGR
notes: also called PatX6 hexapeptide; PatX-derived hexapeptide; source: synthetic peptide (Genecust)
HetR [4]
  Kd: 88 nM
